The EC50 is the midpoint of the concentration-response curve.

Active and inactive are the calls of the source.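 How the source made its calls: active means EC50, the half-effect concentration on GFP expression, at most 33 µM; inactive means the rest.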

The record followed here is PubChem BioAssay AID504470 (NMMLSC, 2011).

A short description of assay [1]: yeast RPL19A-GFP fluorescence modulation, SAR follow-up, cell-based, KU SAR set 2, kMESF flow cytometry, multiplex (AID 504470). The note with it: S. cerevisiae RPL19A-GFP strain, flow cytometry fluorescence, 3 h. For orientation: In flow cytometry, cells or beads pass a laser one at a time.
Assay [2] concerns S. cerevisiae RPL19A-GFP strain, flow cytometry fluorescence, 3 h. The description is as above.

`O=[N+]([O-])c1c(NC2CCCCC2)nc(NCc2ccccc2)nc1N1CCOCC1`: the GFP fluorescence (kMESF) in assay [1] (at 300 µM (top of the series)) was 29.5% (inactive). Regarding `CNc1nc(N)c([N+](=O)[O-])c(Nc2cccc(Oc3ccccc3)c2)n1`, the GFP fluorescence (kMESF) in assay [1] (at 100 µM (top of the series)) was 23% (inactive). For the compound `CNc1nc(N)c(C(=O)c2ccc(C)c(C)c2)c(Nc2cccc(Cl)c2)n1`, the EC50 in assay [2] is 125 µM (inactive).

Take `CNc1nc(N)cc(Oc2cccc(Cl)c2)n1`: the GFP fluorescence (kMESF) in assay [1] (at 300 µM (top of the series)) is 32.2% (inactive). Turning to `CNc1nc(NC)c([N+](=O)[O-])c(Nc2cccc(Cl)c2)n1`, the GFP fluorescence (kMESF) in assay [1] (at 100 µM (top of the series)) is 23.3% (inactive). Consider `COc1ccccc1-c1cc(Nc2cc(C)[nH]n2)nc(NCc2ccccc2)n1`, for which the GFP fluorescence (kMESF) in assay [1] (at 300 µM (top of the series)) was 30% (inactive). With `CCNc1nc(NC2CCCCC2)c([N+](=O)[O-])c(N2CCOCC2)n1`, the EC50 in assay [2] was 70.5 µM (inactive). On to `CNc1nc(NC2CCCCC2)c([N+](=O)[O-])c(N2CCOCC2)n1`, for which the GFP fluorescence (kMESF) in assay [1] (at 100 µM (top of the series)) is 21.9% (inactive).

Consider `CNc1nc(N)c([N+](=O)[O-])c(Nc2cccc(Br)c2)n1`, for which, in assay [1] (at 100 µM (top of the series)), the GFP fluorescence (kMESF) was 24% (inactive). In the case of `CNc1nc(N)cc(Nc2ccccc2F)n1`, in assay [1] (at 300 µM (top of the series)), the GFP fluorescence (kMESF) was 32% (inactive). In the case of `CCNc1nc(N)c([N+](=O)[O-])c(Nc2cccc(Cl)c2)n1`, the GFP fluorescence (kMESF) in assay [1] (at 100 µM (top of the series)) is 18.9% (inactive). Consider `CNc1nc(N)c([N+](=O)[O-])c(Nc2cccc(OC)c2)n1`, for which the GFP fluorescence (kMESF) in assay [1] (at 100 µM (top of the series)) is 22.9% (inactive). Regarding `CCOC(=O)c1c(N)nc(NC)nc1Nc1cccc(F)c1`, the GFP fluorescence (kMESF) in assay [1] (at 300 µM (top of the series)) was 29.8% (inactive). In the case of `CNc1nc(N)c([N+](=O)[O-])c(Nc2ccccc2F)n1`, the GFP fluorescence (kMESF) in assay [1] (at 100 µM (top of the series)) is 24.8% (inactive). As to `CNc1nc(N)cc(Nc2cccc(Cl)c2)n1`, in assay [2], the EC50 was 69.1 µM (inactive). Consider `COc1cccc(-c2cc(Nc3cc(C)[nH]n3)nc(NCc3ccccc3)n2)c1`, for which the GFP fluorescence (kMESF) in assay [1] (at 300 µM (top of the series)) is 32.4% (inactive).

`COC(=O)c1cccc(-c2cc(Nc3cc(C)[nH]n3)nc(NCc3ccccc3)n2)c1`: the GFP fluorescence (kMESF) in assay [1] (at 300 µM (top of the series)) was 32.9% (inactive). As to `Cc1cc(Nc2cc(Nc3ccccc3)nc(NCc3ccccc3)n2)n[nH]1`, the GFP fluorescence (kMESF) in assay [1] (at 300 µM (top of the series)) was 30% (inactive). On the same count and under the same terms, the result for `Cc1cc(Nc2cc(-c3ccccc3)nc(NCc3ccccc3)n2)n[nH]1` reads 31.4% (inactive).

Regarding `CNc1nc(N)c([N+](=O)[O-])c(Nc2ccccc2Br)n1`, in assay [1] (at 100 µM (top of the series)), the GFP fluorescence (kMESF) is 23.4% (inactive).
